In patent US20140213513A1 (Sanofi, priority 2012, published 2014):
In brackets after ≈: the same amount, converted by molar mass. Like-named read-outs stand apart in the source and are kept apart here. *1 amine or outer side, *2 acyl side, *3 side chain or, on linkers, in order; H or OH if unused. Where a SMILES comes first, the peptide text is derived from it. Side-chain parts run from the residue outwards. [ ]: non-standard residue; d: D form. The star is where a group is joined. γGlu = O=C(O)[C@H](CCC(=O)[*:2])N[*:1]; Stearoyl = CCCCCCCCCCCCCCCCCC(=O)*; Palmitoyl = CCCCCCCCCCCCCCCC(=O)*; Aib = CC(C)(N)C(=O)O

Tests used:
[1] = target: T1, human GLP-1 receptor (hGLP-1 R) (Homo sapiens, UniProt P43220); experiment: cAMP response of HEK-293 cells stably expressing human GLP-1 receptor (HTRF); type: cell-based; conditions: Table 7; cAMP formation
T1 construct: expressed in transfected cells
T1 sequence (P43220 24-463): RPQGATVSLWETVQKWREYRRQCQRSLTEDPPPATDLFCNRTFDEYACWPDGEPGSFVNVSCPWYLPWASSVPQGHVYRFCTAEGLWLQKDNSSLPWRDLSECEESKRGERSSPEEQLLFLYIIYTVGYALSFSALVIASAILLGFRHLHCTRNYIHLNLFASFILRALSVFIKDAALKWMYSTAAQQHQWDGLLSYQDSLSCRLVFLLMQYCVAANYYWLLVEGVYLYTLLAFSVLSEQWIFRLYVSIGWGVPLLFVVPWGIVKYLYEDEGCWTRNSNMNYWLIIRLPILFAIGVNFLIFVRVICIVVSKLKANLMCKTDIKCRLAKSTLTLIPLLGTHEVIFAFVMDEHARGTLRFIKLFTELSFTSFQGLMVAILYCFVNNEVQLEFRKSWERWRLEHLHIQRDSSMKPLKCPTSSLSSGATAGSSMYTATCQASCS
Procedure, shortened: (§1)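 Stably transfected HEK-293 cells, accutase-harvested; assay buffer 1×HBSS/20 mM HEPES/0.1% BSA/2 mM IBMX; 400000 cells/ml; compound 30 min, RT; cAMP by HTRF kit.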

[2] = target: T2, human GIP receptor (hGIP R) (Homo sapiens, UniProt P48546); experiment: cAMP response of HEK-293 cells stably expressing human GIP receptor (HTRF); type: cell-based; conditions: Table 7; cAMP formation
T2 construct: expressed in transfected cells
T2 sequence (P48546 22-466): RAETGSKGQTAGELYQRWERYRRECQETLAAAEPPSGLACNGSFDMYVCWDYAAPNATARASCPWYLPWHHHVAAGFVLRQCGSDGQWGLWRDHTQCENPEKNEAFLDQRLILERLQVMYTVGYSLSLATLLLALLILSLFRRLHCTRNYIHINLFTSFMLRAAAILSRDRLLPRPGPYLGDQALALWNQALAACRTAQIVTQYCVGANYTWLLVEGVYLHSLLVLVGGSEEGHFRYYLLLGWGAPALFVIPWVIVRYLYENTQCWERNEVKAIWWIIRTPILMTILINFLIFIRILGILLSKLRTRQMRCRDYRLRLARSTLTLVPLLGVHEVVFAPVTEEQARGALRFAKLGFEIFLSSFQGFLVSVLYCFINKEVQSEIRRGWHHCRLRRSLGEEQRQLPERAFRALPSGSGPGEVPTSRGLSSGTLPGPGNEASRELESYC
Procedure, shortened: as §1

[3] = target: T3, human glucagon receptor (hGLUC R) (Homo sapiens, UniProt P47871); experiment: cAMP response of HEK-293 cells stably expressing human glucagon receptor (HTRF); type: cell-based; conditions: Table 7; cAMP formation
T3 construct: expressed in transfected cells
T3 sequence (P47871 26-477): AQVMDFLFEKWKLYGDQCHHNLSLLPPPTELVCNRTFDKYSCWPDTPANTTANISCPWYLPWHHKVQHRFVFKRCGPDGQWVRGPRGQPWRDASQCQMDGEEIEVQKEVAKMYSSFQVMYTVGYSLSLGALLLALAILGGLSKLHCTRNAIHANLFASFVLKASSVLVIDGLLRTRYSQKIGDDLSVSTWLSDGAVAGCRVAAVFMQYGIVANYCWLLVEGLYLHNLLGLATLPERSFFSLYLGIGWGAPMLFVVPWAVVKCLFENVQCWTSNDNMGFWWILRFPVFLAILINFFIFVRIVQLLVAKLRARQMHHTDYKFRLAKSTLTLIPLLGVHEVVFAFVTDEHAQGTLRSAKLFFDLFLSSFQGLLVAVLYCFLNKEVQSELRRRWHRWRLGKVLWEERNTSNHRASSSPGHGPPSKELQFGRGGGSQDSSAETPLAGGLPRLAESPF
Procedure, shortened: as §1

[4] = Solubility testing in buffer (HPLC-UV of supernatant); type: physicochemical
[5] = pH 4.5, target concentration 1.0 mg/mL, read-out: Solubility (pH 4.5)
[6] = pH 7.4, target concentration 1.0 mg/mL, read-out: Solubility (pH 7.4)

Structure (SMILES): CCCCCCCCCCCCCCCCCC(=O)N[C@@H](CCC(=O)NCCCC[C@H](NC(=O)[C@H](CCC(N)=O)NC(=O)[C@@H](NC(=O)[C@H](CO)NC(=O)[C@H](CC(C)C)NC(=O)[C@H](CC(=O)O)NC(=O)[C@H](CO)NC(=O)[C@@H](NC(=O)[C@H](Cc1ccccc1)NC(=O)[C@@H](NC(=O)CNC(=O)[C@H](Cc1c[nH]cn1)NC(=O)C(C)(C)NC(=O)[C@@H](N)Cc1ccc(O)cc1)[C@@H](C)O)[C@@H](C)O)[C@@H](C)CC)C(=O)N[C@@H](CCC(=O)O)C(=O)N[C@@H](CCCCN)C(=O)N[C@@H](CCCNC(=N)N)C(=O)N[C@@H](C)C(=O)N[C@@H](C)C(=O)NC(C)(C)C(=O)N[C@@H](CCC(=O)O)C(=O)N[C@@H](Cc1ccccc1)C(=O)N[C@H](C(=O)N[C@@H](CCC(=O)O)C(=O)N[C@@H](Cc1c[nH]c2ccccc12)C(=O)N[C@@H](CC(C)C)C(=O)N[C@@H](CCCCN)C(=O)N[C@@H](CC(N)=O)C(=O)N[C@H](C(=O)NCC(=O)N1CCC[C@H]1C(=O)N[C@@H](CO)C(=O)N[C@@H](CO)C(=O)NCC(=O)N[C@@H](C)C(=O)N1CCC[C@H]1C(=O)N1CCC[C@H]1C(=O)N1CCC[C@H]1C(=O)N[C@@H](CO)C(N)=O)[C@@H](C)O)[C@@H](C)CC)C(=O)O [SEQ ID NO: 18, Y-Aib-H-G-T-F-T-S-D-L-S-I-Q-K(yE-x70)-E-K-R-A-A-Aib-E-F-I-E-W-L-K-N-T-G-P-S-S-G-A-P-P-P-S-NH2] (H-Y[Aib]HGTFTSDLSIQK([γGlu-Stearoyl])EKRAA[Aib]EFIEWLKNTGPSSGAPPPS-NH2)
- EC50 [1]: 0.0183 nM
- EC50 [2]: 0.0095 nM
- EC50 [3]: 0.0095 nM
- solubility at 2 h [4, 5]: 966 µg/mL (≈ 209 µM)
- solubility at 2 h [4, 6]: 768 µg/mL (≈ 166 µM)

Structure (SMILES): CCCCCCCCCCCCCCCCCC(=O)N[C@@H](CCC(=O)NCCCC[C@H](NC(=O)[C@H](CCC(N)=O)NC(=O)[C@@H](NC(=O)[C@H](CO)NC(=O)[C@H](CC(C)C)NC(=O)[C@H](CC(=O)O)NC(=O)[C@H](CO)NC(=O)[C@@H](NC(=O)[C@H](Cc1ccccc1)NC(=O)[C@@H](NC(=O)CNC(=O)[C@H](CCC(=O)O)NC(=O)C(C)(C)NC(=O)[C@@H](N)Cc1ccc(O)cc1)[C@@H](C)O)[C@@H](C)O)[C@@H](C)CC)C(=O)N[C@@H](CCC(=O)O)C(=O)N[C@@H](CO)C(=O)N[C@@H](CCCCN)C(=O)N[C@@H](C)C(=O)N[C@@H](C)C(=O)N[C@@H](CCC(N)=O)C(=O)N[C@@H](CCC(=O)O)C(=O)N[C@@H](Cc1ccccc1)C(=O)N[C@H](C(=O)N[C@@H](CCC(=O)O)C(=O)N[C@@H](Cc1c[nH]c2ccccc12)C(=O)N[C@@H](CC(C)C)C(=O)N[C@@H](CCCCN)C(=O)N[C@@H](C)C(=O)NCC(=O)NCC(=O)N1CCC[C@H]1C(=O)N[C@@H](CO)C(=O)N[C@@H](CO)C(=O)NCC(=O)N[C@@H](C)C(=O)N1CCC[C@H]1C(=O)N1CCC[C@H]1C(=O)N1CCC[C@H]1C(=O)N[C@@H](CO)C(N)=O)[C@@H](C)CC)C(=O)O [SEQ ID NO: 42, Y-Aib-E-G-T-F-T-S-D-L-S-I-Q-K(yE-x70)-ESKAAQEFIEWLKAGGPSSGAPPPS-NH2] (H-Y[Aib]EGTFTSDLSIQK([γGlu-Stearoyl])ESKAAQEFIEWLKAGGPSSGAPPPS-NH2)
- EC50 [1]: 0.0062 nM
- EC50 [2]: 0.0129 nM
- EC50 [3]: 8.47 nM
- solubility at 2 h [4, 5]: > 1000 µg/mL
- solubility at 2 h [4, 6]: 936 µg/mL (≈ 208 µM)

Structure (SMILES): CCCCCCCCCCCCCCCC(=O)N[C@@H](CCC(=O)NCCCC[C@H](NC(=O)[C@H](CCC(N)=O)NC(=O)[C@@H](NC(=O)[C@H](CO)NC(=O)[C@H](CC(C)C)NC(=O)[C@H](CC(=O)O)NC(=O)[C@H](CO)NC(=O)[C@@H](NC(=O)[C@H](Cc1ccccc1)NC(=O)[C@@H](NC(=O)CNC(=O)[C@H](CCC(N)=O)NC(=O)C(C)(C)NC(=O)[C@@H](N)Cc1ccc(O)cc1)[C@@H](C)O)[C@@H](C)O)[C@@H](C)CC)C(=O)N[C@@H](CC(=O)O)C(=O)N[C@@H](CCCCN)C(=O)N[C@@H](CCCNC(=N)N)C(=O)N[C@@H](C)C(=O)N[C@@H](C)C(=O)N[C@@H](CCC(N)=O)C(=O)N[C@@H](CC(=O)O)C(=O)N[C@@H](Cc1ccccc1)C(=O)N[C@H](C(=O)N[C@@H](CCC(=O)O)C(=O)N[C@@H](Cc1c[nH]c2ccccc12)C(=O)N[C@@H](CC(C)C)C(=O)N[C@@H](CCCCN)C(=O)N[C@@H](CCCCN)C(=O)NCC(=O)NCC(=O)N1CCC[C@H]1C(=O)N[C@@H](CO)C(=O)N[C@@H](CO)C(=O)NCC(=O)N[C@@H](C)C(=O)N1CCC[C@H]1C(=O)N1CCC[C@H]1C(=O)N1CCC[C@H]1C(=O)N[C@@H](CO)C(N)=O)[C@@H](C)CC)C(=O)O [SEQ ID NO: 44, Y-Aib-Q-G-T-F-T-S-D-L-S-I-Q-K(yE-x53)-DKRAAQDFIEWLKKGGPSSGAPPPS-NH2] (H-Y[Aib]QGTFTSDLSIQK([γGlu-Palmitoyl])DKRAAQDFIEWLKKGGPSSGAPPPS-NH2)
- EC50 [1]: 0.0097 nM
- EC50 [2]: 0.0255 nM
- EC50 [3]: 0.0552 nM

Structure (SMILES): CCCCCCCCCCCCCCCC(=O)N[C@@H](CCC(=O)NCCCC[C@H](NC(=O)[C@H](CCC(N)=O)NC(=O)[C@@H](NC(=O)[C@H](CO)NC(=O)[C@H](CC(C)C)NC(=O)[C@H](CC(=O)O)NC(=O)[C@H](CO)NC(=O)[C@@H](NC(=O)[C@H](Cc1ccccc1)NC(=O)[C@@H](NC(=O)CNC(=O)[C@H](CCC(N)=O)NC(=O)C(C)(C)NC(=O)[C@@H](N)Cc1ccc(O)cc1)[C@@H](C)O)[C@@H](C)O)[C@@H](C)CC)C(=O)N[C@@H](CCC(=O)O)C(=O)N[C@@H](CCC(N)=O)C(=O)N[C@@H](CCCNC(=N)N)C(=O)N[C@@H](C)C(=O)N[C@@H](C)C(=O)NC(C)(C)C(=O)N[C@@H](CCC(=O)O)C(=O)N[C@@H](Cc1ccccc1)C(=O)N[C@H](C(=O)N[C@@H](CCC(=O)O)C(=O)N[C@@H](Cc1c[nH]c2ccccc12)C(=O)N[C@@H](CC(C)C)C(=O)N[C@@H](CCCCN)C(=O)N[C@@H](CC(N)=O)C(=O)N[C@H](C(=O)NCC(=O)N1CCC[C@H]1C(=O)N[C@@H](CO)C(=O)N[C@@H](CO)C(=O)NCC(=O)N[C@@H](C)C(=O)N1CCC[C@H]1C(=O)N1CCC[C@H]1C(=O)N1CCC[C@H]1C(=O)N[C@@H](CO)C(N)=O)[C@@H](C)O)[C@@H](C)CC)C(=O)O [SEQ ID NO: 15, Y-Aib-Q-G-T-F-T-S-D-L-S-I-Q-K(yE-x53)-E-Q- R-A-A-Aib-E-F-I-E-W-L-K-N-T-G-P-S-S-G-A-P-P-P-S-NH2] (H-Y[Aib]QGTFTSDLSIQK([γGlu-Palmitoyl])EQRAA[Aib]EFIEWLKNTGPSSGAPPPS-NH2)
- EC50 [1]: 0.0069 nM
- EC50 [2]: 0.0114 nM
- EC50 [3]: 0.054 nM
